Source: patent publication US7615534B2, “Antimicrobial peptides and use thereof” (Toagosei Co., Ltd, priority 2005, dated 2009)
Where no end group is shown, it is not given here.

Each compound was assayed on Staphylococcus aureus IFO 12732. Settings: 37° C., turbidity 24 hours later, diluents approximately 50 μM to approximately 0.39 μM, approximately 1×10^6 cells/mL.
Format: cell-based
Experimental: Regarding the antimicrobial peptide in each of samples 1 to 14, the antimicrobial activities (minimum inhibitory concentration: MIC) with respect to gram-positive bacteria (Staphylococcus aureus IFO 12732) were determined, as described below, by a liquid medium dilution technique using a 96-well microplate. Staphylococcus aureus bacteria are inoculated from a preservation medium to an agar plate medium (“Muller Hinton Agar” manufactured by DIFCO), and thereafter stationary cultured for 18 hours at 37° C. Cultured bacteria were scratched twice using a disposable loop, and gathered bacteria were suspended in 5 mL of physiological saline. The OD660 value of the bacterial suspension derived from diluting the suspension 10 times with physiological saline was determined. The bacterial suspension used in the following tests was prepared by utilizing physiological saline, such that its OD660 value was 0.1 (therefore, bacteria concentration: approximately 2×10^7 cells/mL).
Each peptide sample derived by the above-described method was dissolved with sterile distilled water, which served as a carrier in the present example, to prepare a drug of predetermined concentration. More specifically, an appropriate amount of peptide sample were added into an Eppendorf (registered trademark) tube with an appropriate capacity, and such peptide sample were dissolved with sterile distilled water to prepare 2 mM of drug (peptide solution). The derived drug was appropriately diluted, and each diluent of approximately 50 μM to approximately 0.39 μM was prepared. Thereafter, each diluent was respectively introduced into the well of a polystyrene 96-round-bottom-well microplate prepared in advance. Next, 5 μL of the bacterial suspension having 0.1 OD660 was added (test bacteria quantity: approximately 1×10^6 cells/mL) respectively to each well containing the diluent of each concentration. The microplate was then incubated in an incubator at 37° C., and the presence of bacteria was evaluated based on the turbidity 24 hours later. The minimum drug concentration (peptide concentration), in which an increased in turbidity caused by bacteria was not detected at the time of measurement, was defined as MIC (unit: μM) in the present example.

Compound	Antimicrobial Activities (MIC) S. aureus (24 hours later)
RLIKLLYQRLIKLLYQ-NH2 [Sample 7, RLIKLLYQ RLIKLLYQ]	6.25 µM
KTKEGVKT (KTKEGVKT-NH2) [Comparative Sample 1, reference compound]	No Activity
IRLIKFLYQ-NH2 [Sample 5, IRLIKFLYQ]	25 µM
ENLLKAIRLIKFLYQ-NH2 [Sample 14, ENLLKAIRLIKFLYQ]	6.25 µM
VRLIKFLYQ-NH2 [Sample 2, VRLIKFLYQ]	12.5 µM
RLIKLLYQ-NH2 [Sample 6, RLIKLLYQ]	25 µM
RELLTAVRIIKILYQ-NH2 [Sample 12, RELLTAVRIIKILYQ]	25 µM
VRFIKFLYQ-NH2 [Sample 3, VRFIKFLYQ]	25 µM
EDLLRTVRLIKVLYQ-NH2 [Sample 13, EDLLRTVRLIKVLYQ]	50 µM
RRAAQAVRLIKLLYQ-NH2 [Sample 11, RRAAQAVRLIKLLYQ]	6.25 µM
CC[C@H](C)[C@H](NC(=O)[C@H](CC(C)C)NC(=O)[C@H](CCCNC(=N)N)NC(=O)[C@@H](NC(=O)[C@@H](NC(=O)[C@H](CCCNC(=N)N)NC(=O)[C@@H](NC(=O)[C@H](CC(C)C)NC(=O)[C@H](CCC(=O)O)NC(=O)[C@@H](N)CCC(=O)O)[C@@H](C)CC)[C@@H](C)O)C(C)C)C(=O)N[C@@H](CCCCN)C(=O)N[C@@H](CC(C)C)C(=O)N[C@@H](CC(C)C)C(=O)N[C@@H](Cc1ccc(O)cc1)C(=O)N[C@@H](CCC(N)=O)C(N)=O [Sample 10, EELIRTVRLIKLLYQ]	25 µM
CC[C@H](C)[C@H](NC(=O)[C@H](CC(C)C)NC(=O)[C@H](CCCNC(=N)N)NC(=O)[C@@H](N)C(C)C)C(=O)N[C@@H](CCCCN)C(=O)N[C@@H](CC(C)C)C(=O)N[C@@H](CC(C)C)C(=O)N[C@@H](Cc1ccc(O)cc1)C(=O)N[C@@H](CCC(N)=O)C(N)=O [Sample 1, VRLLKLLYQ]	50 µM
EELLKAVRLIKLLYQ-NH2 [Sample 8, EELLKAVRLIKLLYQ]	25 µM
EDLLKAVRLIKFLYQ-NH2 [Sample 9, EDLLKAVRLIKFLYQ]	25 µM

Same assay, conditions: summary of Table 2

Compound	antimicrobial activity (in words)
KTKEGVKT (KTKEGVKT-NH2) [Comparative Sample 1, reference compound]	no antimicrobial activity was detected
